Laboratory results published in PubChem BioAssay (NCI).
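1) Cells in 96-well plates. 2) Compound, 48 h, 5 concentrations. 3) Linear interpolation between surrounding doses. 4) Unreached endpoint = highest concentration. At the GI50, growth is halved. Definition used: TGI = concentration required for complete inhibition of growth.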

How the values were obtained:
Experiment in all cases: NCI tumour cell line growth inhibition, 48 h
[1] = tested on: ACHN renal
[2] = tested on: SR leukemia
[3] = tested on: CCRF-CEM leukemia
[4] = tested on: SF-295 CNS
[5] = tested on: HOP-62 NSCLC
[6] = tested on: COLO 205 colon
[7] = tested on: M14 melanoma
[8] = tested on: OVCAR-3 ovarian
[9] = tested on: T-47D breast
[10] = tested on: SK-OV-3 ovarian

O=C(COc1cccc(/C=C2\COc3ccc(Cl)cc3C2=O)c1)c1ccc(Cl)cc1
GI50 [1]: 15.4 µM
TGI [1]: 29.4 µM
GI50 [2]: 1.71 µM
TGI [2]: 5.11 µM
GI50 [3]: 4.72 µM
TGI [3]: 49 µM
GI50 [4]: 24.9 µM
TGI [4]: 39.6 µM
GI50 [5]: 14.3 µM
TGI [5]: 27.7 µM
GI50 [6]: 15 µM
TGI [6]: 29.8 µM
GI50 [7]: 11.6 µM
TGI [7]: 24.4 µM
GI50 [8]: 7.71 µM
TGI [8]: 19.8 µM
GI50 [9]: 11.4 µM
TGI [9]: 26.1 µM
GI50 [10]: 18.4 µM
TGI [10]: 45.6 µM

CC(C)(C#N)c1cc(C(=O)Nc2cc(Nc3ncccc3-c3ncnc4nc[nH]c34)ccc2F)cc(C(F)(F)F)c1
GI50 [1]: 1.2 µM
TGI [1]: > 3.41 µM
TGI [2]: > 10 µM
TGI [3]: > 10 µM
TGI [4]: > 3.73 µM
GI50 [5]: 0.463 µM
TGI [5]: > 10 µM
GI50 [6]: 0.131 µM
GI50 [7]: 0.101 µM
TGI [7]: 0.862 µM
TGI [8]: > 4.1 µM
TGI [9]: > 3.23 µM
GI50 [10]: > 2.38 µM
TGI [10]: > 10 µM

O=C(CN1CCN(c2ccccc2)CC1)N1CCN(c2nnc(-c3ccc(Cl)cc3)c(-c3ccc(Cl)cc3)n2)CC1
GI50 [1]: 5.59 µM
TGI [1]: > 100 µM
GI50 [2]: 1.7 µM
TGI [2]: 6.62 µM
GI50 [3]: 8.08 µM
TGI [3]: > 100 µM
GI50 [4]: 36 µM
TGI [4]: > 100 µM
GI50 [5]: 20.5 µM
TGI [5]: 75.9 µM
GI50 [6]: 3.61 µM
TGI [6]: 27.7 µM
GI50 [7]: 9.99 µM
TGI [7]: > 100 µM
GI50 [8]: 7.24 µM
TGI [8]: 41.3 µM
GI50 [9]: 3.51 µM
TGI [9]: 28.9 µM
GI50 [10]: > 100 µM
TGI [10]: > 100 µM

c1ccc(CSc2nnc3c4ccccc4c4ccccc4c3n2)cc1
TGI [1]: > 100 µM
TGI [2]: > 100 µM
TGI [3]: 72.5 µM
TGI [4]: 62.3 µM
TGI [5]: 75.6 µM
TGI [6]: > 100 µM
TGI [7]: > 100 µM
TGI [8]: > 70.9 µM
TGI [9]: > 100 µM
TGI [10]: 50 µM

COc1ccc2c(c1)C(C)Cc1c(Cl)nc(C)nc1N2C (centres undefined)
GI50 [1]: 5.61 µM
TGI [1]: > 100 µM
GI50 [2]: 2.44 µM
TGI [2]: > 100 µM
GI50 [3]: 3.17 µM
TGI [3]: > 100 µM
GI50 [4]: 1.74 µM
TGI [4]: 7.92 µM
GI50 [5]: 2.22 µM
TGI [5]: 36.3 µM
GI50 [6]: 2.07 µM
TGI [6]: 5.53 µM
GI50 [7]: 1.34 µM
TGI [7]: 12.4 µM
GI50 [8]: 1.4 µM
TGI [8]: 4.17 µM
GI50 [9]: 3.43 µM
TGI [9]: > 100 µM
GI50 [10]: 2.79 µM
TGI [10]: 26.7 µM

COc1cc(C2CC(c3ccc(N(C)C)cc3)=NN2C(C)=O)cc(OC)c1OC (centres undefined)
GI50 [1]: 3.57 µM
TGI [1]: > 100 µM
GI50 [2]: 2.39 µM
TGI [2]: > 100 µM
GI50 [3]: 8.17 µM
TGI [3]: > 100 µM
GI50 [4]: 0.374 µM
TGI [4]: > 100 µM
GI50 [5]: 2.16 µM
TGI [5]: > 100 µM
GI50 [6]: 3.06 µM
TGI [6]: > 41.4 µM
GI50 [7]: 1.39 µM
TGI [7]: > 100 µM
GI50 [8]: 0.352 µM
TGI [8]: 1.84 µM
GI50 [9]: > 24.7 µM
TGI [9]: > 100 µM
GI50 [10]: 5.46 µM
TGI [10]: > 100 µM

O=C(N/N=C/c1cc([N+](=O)[O-])ccc1O)c1cccc2ccccc12
GI50 [1]: 3.08 µM
TGI [1]: 44.7 µM
GI50 [2]: 1.81 µM
TGI [2]: 16.1 µM
GI50 [3]: 0.905 µM
TGI [3]: 38.6 µM
GI50 [4]: 2.77 µM
TGI [4]: 20.9 µM
GI50 [5]: 3.73 µM
TGI [5]: 35.2 µM
GI50 [6]: 3.41 µM
TGI [6]: 16.3 µM
GI50 [7]: 2.87 µM
TGI [7]: 68.4 µM
GI50 [8]: 3.67 µM
TGI [8]: > 100 µM
GI50 [9]: 3.28 µM
TGI [9]: 23.3 µM
GI50 [10]: 4 µM
TGI [10]: 33.3 µM

Cn1ccnc1C(=O)/C=C/c1ccc(CC(=O)Nc2ccc(C(F)(F)F)cc2)cc1
GI50 [1]: 2.95 µM
TGI [1]: 5.96 µM
GI50 [2]: 0.718 µM
TGI [2]: 9.94 µM
GI50 [3]: 0.658 µM
TGI [3]: > 16.7 µM
GI50 [4]: 2.56 µM
TGI [4]: 5.17 µM
GI50 [5]: > 16.7 µM
TGI [5]: > 16.7 µM
GI50 [6]: 3.17 µM
TGI [6]: 6.17 µM
GI50 [7]: 3.72 µM
TGI [7]: 8.3 µM
GI50 [8]: 2.95 µM
TGI [8]: 6.88 µM
GI50 [9]: 5.95 µM
TGI [9]: > 16.7 µM
GI50 [10]: 6.6 µM
TGI [10]: > 16.7 µM
